# Results as given in patent publication US9814754B2, “Combinations with a backbone-cyclized peptide” (POLYPHOR AG, priority 2012, dated 2017).
# Square brackets hold non-standard residues; d marks the D form. dDab = NCC[C@@H](N)C(=O)O; Orn = NCCC[C@H](N)C(=O)O; Dab = NCC[C@H](N)C(=O)O
# Test system: Pseudomonas aeruginosa clinical isolate PAX11045
# Assay: Murine pneumonia model, compound 1 in combination with azithromycin (Example 2)
# Type: in vivo
# Method: The efficacy and ED50 of the compound of formula (I) (“compound 1”) in combination with azithromycin was determined against Pseudomonas aeruginosa clinical isolate PAX11045 in a pneumonia model in mice. Colony counts in lung were determined at 20 hours post treatment.
# Fresh overnight colonies of PAX11045 from a 5% Horse Blood Agar plate were suspended in 0.9% sterile saline to approximately 10^8 CFU/ml and further diluted to approximately 5×10^7 CFU/ml. Female mice (DBA/2, outbred, 17-23 g, Charles River) were anesthetized with 0.1 ml of Zoletil and inoculated via the nose with a pipette with 0.05 ml of the bacteria suspension containing approximately 10^6 CFU. 4 hours after inoculation, the mice were treated orally with 45 μl neurophen (20 mg ibuprofen/ml corresponding to approximately 30 mg/kg) as pain relief.
# 480 mg of azithromycin (Zitromax™, Pfizer) were dissolved in 4.8 ml 0.9% sterile saline to a concentration of 100 mg/ml and further diluted with saline to 5 mg/ml. The mice were treated subcutaneously with 0.2 ml in the neck region with a single dose at 3 hours post infection corresponding to 50 mg/kg on the basis of a mean animal weight of 20 g.
# The mice were treated subcutaneously with 0.2 ml in the neck region with a single dose at 4 hours post infection with a dose calculation based on a mean animal weight of 20 g.
# Colony counts were determined post inoculation at 4 hours (untreated mice) and 24 hours (treated and vehicle-only treated mice). Immediately after the mice were sacrificed, the lungs were collected and frozen at −20° C. After thawing, the organs were homogenized in 1 ml 0.9% saline. Each sample was then 10 fold diluted in saline and 20 μl spots were applied on blood agar plates. All agar plates were incubated 18-24 hours at 35° C. in ambient air.
# [1] = in presence of 50 mg/kg azithromycin, murine lungs
substance,measurement,setting,value
cyclo(TWI[Dab][Orn][dDab][Dab]W[Dab][Dab]AS[dP]P) [compound 1],effect on bacterial loads,"5.5 mg/kg alone, lung, p<0.001",significant effect on reducing the bacterial loads
same,CFU levels compared to vehicle treatment,"combination of compound 1 (dose series) and azithromycin 50 mg/kg, lung, p<0.01-p<0.001",concentration dependent significant reduction of the CFU levels
same,Top level,"compound 1 s.c. in presence of 50 mg/kg azithromycin (s.c., 3 h post infection), murine lungs",−0.10 log10 CFU/ml
same,1 log killing dose,[1],1.2 mg/kg
same,2 log killing dose,[1],2.4 mg/kg
same,Bottom level,[1],−2.59 log10 CFU/ml
same,Emax,[1],2.49 log10 CFU/ml
same,Static dose,[1],0.63 mg/kg
same,ED50,"in presence of fixed dose of 50 mg/kg azithromycin, murine lungs",1.74 mg/kg
